Experimental data: patent US20260130933A1, “PHARMACEUTICAL COMPOSITION FOR PREVENTION OR TREATMENT OF NEPHROPATHY AND/OR DIABETES MELLITUS, COMPRISING ENAVOGLIFLOZIN” (DAEWOONG PHARMACEUTICAL CO., LTD., priority 2022, published 2026)

Experiment: Example 1: phase 3 trial, enavogliflozin 0.3 mg once a day as monotherapy vs placebo for 24 weeks in patients with type 2 diabetes (HbA1c, FPG, C-peptide, body weight, lipids, blood pressure, HOMA, UACR, UGCR, adiponectin, leptin, safety)
Type: in vivo, human
Description: When a subject voluntarily gave written consent to participate in this clinical trial, a screening test was conducted. […] However, when the administration of a hypoglycemic agent was interrupted before the clinical trial Visit 1 (screening), at least an 8-week washout period, including the discontinuation period, was required, and during this period, a stable diet and exercise program was followed. Naïve patients were screened without a separate washout period, and the criteria for naïve patients were defined as patients who had not been administered hypoglycemic agents within 24 weeks prior to the date of obtaining written consent. […] In addition, they were instructed to maintain regular exercise and dietary control starting from 8 weeks prior to screening without changing their daily life patterns during the clinical trial period.

OC[C@H]1O[C@@H](c2cc(Cc3ccc(C4CC4)cc3)c(Cl)c3c2CCO3)[C@H](O)[C@@H](O)[C@@H]1O [Enavogliflozin, (2S,3R,4R,5S,6R)-2-(7-chloro-6 (4-cyclopropylbenzyl)-2,3-dihydrobenzofuran-4-yl)-6-(hydroxymethyl)tetrahydro-2H-pyran-3,4,5-triol]
HbA1c, Mean (SD) (week 18): 6.88(0.54) %
LDL-C change from baseline, LS mean (week 18): -0.32 mg/dL
LDL-C change from baseline, Mean (week 18): 1.69 mg/dL
LDL-C, Mean (week 18): 97.16 mg/dL
Subjects achieving HbA1c target of <6.5% (week 18): 24(29.27) %
Subjects achieving HbA1c target of <7% (week 18): 47(57.32) %
Subjects achieving therapeutic glycemic response (HbA1c change >0.5% or HbA1c<7%) (week 18): 60(73.17) %
Systolic blood pressure, Mean (week 18): 121.63 mmHg
body weight change from baseline, LS mean (week 18): -3.42 kg
body weight change from baseline, Mean (week 18): -3.44 kg
diastolic blood pressure change from baseline, LS mean (week 18): −4.09 mmHg
diastolic blood pressure change from baseline, Mean (week 18): −3.63 mmHg
fasting C-peptide, Mean (SD) (week 18): 0.65 ng/mL
systolic blood pressure change from baseline, LS mean (week 18): −6.56 mmHg
systolic blood pressure change from baseline, Mean (week 18): −6.22 mmHg
total cholesterol change from baseline, LS mean (week 18): 6.45 mg/dL
total cholesterol change from baseline, Mean (week 18): 8.40 mg/dL
total cholesterol, Mean (week 18): 169.82 mg/dL
triglycerides change from baseline, LS mean (week 18): -8.82 mg/dL
triglycerides change from baseline, Mean (week 18): -4.14 mg/dL
triglycerides, Mean (week 18): 113.30 mg/dL
FPG change from baseline, LS mean difference (week 18, vs placebo): -33.40 mg/dL
HDL-C change from baseline, LS mean difference (week 18, vs placebo): 2.69 mg/dL
HOMA-IR change from baseline, LS mean difference (week 18, vs placebo): −1.49
HOMA-β change from baseline, LS mean difference (week 18, vs placebo): 22.40
HbA1c change from baseline, LS mean difference (week 18, vs placebo): −0.79 % p
LDL-C change from baseline, LS mean difference (week 18, vs placebo): -2.35 mg/dL
Odds ratio for achieving HbA1c<6.5% (week 18, vs placebo): 5.58
Odds ratio for achieving HbA1c<7% (week 18, vs placebo): 4.85
Odds ratio for achieving therapeutic response (week 18, vs placebo): 7.45
UACR change from baseline, LS mean difference (week 18, vs placebo): -13.39 g/kg
UGCR change from baseline, LS mean difference (week 18, vs placebo): 47.66 mg/mg
adiponectin change from baseline, LS mean difference (week 18, vs placebo): 1.04 µg/mL
body weight change from baseline, LS mean difference (week 18, vs placebo): -2.37 kg
diastolic blood pressure change from baseline, LS mean difference (week 18, vs placebo): −1.90 mmHg
fasting C-peptide change from baseline, LS mean difference (week 18, vs placebo): -0.11 ng/mL
leptin change from baseline, LS mean difference (week 18, vs placebo): -2.36 ng/mL
systolic blood pressure change from baseline, LS mean difference (week 18, vs placebo): −3.36 mmHg
total cholesterol change from baseline, LS mean difference (week 18, vs placebo): -0.99 mg/dL
triglycerides change from baseline, LS mean difference (week 18, vs placebo): -17.74 mg/dL
Body weight, Mean (week 24): 65.28 kg
Diastolic blood pressure, Mean (week 24): 72.68 mmHg
FPG change from baseline, LS mean (SE) (week 24): −31.66(3.68) mg/dL
FPG change from baseline, Mean (SD) (week 24): −30.00(20.73) mg/dL
FPG, Mean (SD) (week 24): 111.00(14.56) mg/dL
HDL-C change from baseline, LS mean (week 24): 4.39 mg/dL
HDL-C change from baseline, Mean (week 24): 4.13 mg/dL
HDL-C, Mean (week 24): 56.05 mg/dL
HbA1c change from baseline, LS mean (SE) (week 24): −0.88(0.10) % p
HbA1c change from baseline, Mean (SD) (week 24): −0.84(0.66) % p
HbA1c, Mean (SD) (week 24): 6.80(0.59) %
LDL-C change from baseline, LS mean (week 24): -2.92 mg/dL
LDL-C change from baseline, Mean (week 24): -1.03 mg/dL
LDL-C, Mean (week 24): 94.44 mg/dL
Subjects achieving HbA1c target of <6.5% (week 24): 29(35.37) %
Subjects achieving HbA1c target of <7% (week 24): 58(70.73) %
Subjects achieving therapeutic glycemic response (HbA1c change >0.5% or HbA1c<7%) (week 24): 68(82.93) %
Systolic blood pressure, Mean (week 24): 121.29 mmHg
body weight change from baseline, LS mean (week 24): -3.47 kg
body weight change from baseline, Mean (week 24): -3.48 kg
diastolic blood pressure change from baseline, LS mean (week 24): −3.92 mmHg
diastolic blood pressure change from baseline, Mean (week 24): −3.55 mmHg
fasting C-peptide, Mean (SD) (week 24): 0.64 ng/mL
systolic blood pressure change from baseline, LS mean (week 24): −7.27 mmHg
systolic blood pressure change from baseline, Mean (week 24): −6.55 mmHg
total cholesterol change from baseline, LS mean (week 24): 4.84 mg/dL
total cholesterol change from baseline, Mean (week 24): 6.58 mg/dL
total cholesterol, Mean (week 24): 168.00 mg/dL
triglycerides change from baseline, LS mean (week 24): -0.08 mg/dL
triglycerides change from baseline, Mean (week 24): 1.95 mg/dL
triglycerides, Mean (week 24): 119.39 mg/dL
FPG change from baseline, LS mean difference (week 24, vs placebo): -40.08 mg/dL
HDL-C change from baseline, LS mean difference (week 24, vs placebo): 4.05 mg/dL
HOMA-IR change from baseline, LS mean difference (week 24, vs placebo): −1.94
HOMA-β change from baseline, LS mean difference (week 24, vs placebo): 5.88
HbA1c change from baseline, LS mean difference (week 24, vs placebo): −0.99 % p
LDL-C change from baseline, LS mean difference (week 24, vs placebo): -6.91 mg/dL
Odds ratio for achieving HbA1c<6.5% (week 24, vs placebo): 12.10
Odds ratio for achieving HbA1c<7% (week 24, vs placebo): 9.08
Odds ratio for achieving therapeutic response (week 24, vs placebo): 12.98
UACR change from baseline, LS mean difference (week 24, vs placebo): -13.92 g/kg
UGCR change from baseline, LS mean difference (week 24, vs placebo): 47.36 mg/mg
adiponectin change from baseline, LS mean difference (week 24, vs placebo): 0.98 µg/mL
body weight change from baseline, LS mean difference (week 24, vs placebo): -2.47 kg
diastolic blood pressure change from baseline, LS mean difference (week 24, vs placebo): −3.12 mmHg
fasting C-peptide change from baseline, LS mean difference (week 24, vs placebo): -0.13 ng/mL
leptin change from baseline, LS mean difference (week 24, vs placebo): -2.99 ng/mL
systolic blood pressure change from baseline, LS mean difference (week 24, vs placebo): −5.75 mmHg
total cholesterol change from baseline, LS mean difference (week 24, vs placebo): -6.40 mg/dL
triglycerides change from baseline, LS mean difference (week 24, vs placebo): -28.56 mg/dL
